Results on 36 compounds are retold here after patent publication US9988400B2 (Genentech, Inc., priority 2013, dated 2018).

The assay has as its target T1, HEK cells stably transfected with tetracycline inducible hNR1 and hNR2A (Homo sapiens, UniProt Q05586+Q12879).
T1 construct: expressed in transfected cells; host or cells: HEK cells, stably transfected, tetracycline/doxycycline inducible
Put plainly: Assay 1: Cell-Based Assay, cytosolic calcium response to positive allosteric modulators (with 30 μM glycine and 300 nM L-glutamate, EC30). The conditions noted are these: for EC50: cytosolic calcium response, with 30 μM glycine and 300 nM L-glutamate (EC30), — = no plateau was reached; for Max %: responses scaled relative to 100 μM L-glutamate maximal response (100%) and 0 μM L-glutamate (0%). An outline of the steps:
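Cells induced 24 h with 7.5 μg mL^−1 doxycycline plus 500 μM (+)-ketamine, loaded 60 min at 37 °C with calcium dye in Mg-free HBSS (1.8 mM Ca, probenecid, 10 μM (+)-ketamine, pH 7.15). Peak RFU over 5 min after compound addition, scaled to 100 μM L-glutamate (100%) and 0 μM (0%); four-parameter Hill fit for EC50, max % if no plateau.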

T1 sequence (Q12879 23-1464, other chains not shown): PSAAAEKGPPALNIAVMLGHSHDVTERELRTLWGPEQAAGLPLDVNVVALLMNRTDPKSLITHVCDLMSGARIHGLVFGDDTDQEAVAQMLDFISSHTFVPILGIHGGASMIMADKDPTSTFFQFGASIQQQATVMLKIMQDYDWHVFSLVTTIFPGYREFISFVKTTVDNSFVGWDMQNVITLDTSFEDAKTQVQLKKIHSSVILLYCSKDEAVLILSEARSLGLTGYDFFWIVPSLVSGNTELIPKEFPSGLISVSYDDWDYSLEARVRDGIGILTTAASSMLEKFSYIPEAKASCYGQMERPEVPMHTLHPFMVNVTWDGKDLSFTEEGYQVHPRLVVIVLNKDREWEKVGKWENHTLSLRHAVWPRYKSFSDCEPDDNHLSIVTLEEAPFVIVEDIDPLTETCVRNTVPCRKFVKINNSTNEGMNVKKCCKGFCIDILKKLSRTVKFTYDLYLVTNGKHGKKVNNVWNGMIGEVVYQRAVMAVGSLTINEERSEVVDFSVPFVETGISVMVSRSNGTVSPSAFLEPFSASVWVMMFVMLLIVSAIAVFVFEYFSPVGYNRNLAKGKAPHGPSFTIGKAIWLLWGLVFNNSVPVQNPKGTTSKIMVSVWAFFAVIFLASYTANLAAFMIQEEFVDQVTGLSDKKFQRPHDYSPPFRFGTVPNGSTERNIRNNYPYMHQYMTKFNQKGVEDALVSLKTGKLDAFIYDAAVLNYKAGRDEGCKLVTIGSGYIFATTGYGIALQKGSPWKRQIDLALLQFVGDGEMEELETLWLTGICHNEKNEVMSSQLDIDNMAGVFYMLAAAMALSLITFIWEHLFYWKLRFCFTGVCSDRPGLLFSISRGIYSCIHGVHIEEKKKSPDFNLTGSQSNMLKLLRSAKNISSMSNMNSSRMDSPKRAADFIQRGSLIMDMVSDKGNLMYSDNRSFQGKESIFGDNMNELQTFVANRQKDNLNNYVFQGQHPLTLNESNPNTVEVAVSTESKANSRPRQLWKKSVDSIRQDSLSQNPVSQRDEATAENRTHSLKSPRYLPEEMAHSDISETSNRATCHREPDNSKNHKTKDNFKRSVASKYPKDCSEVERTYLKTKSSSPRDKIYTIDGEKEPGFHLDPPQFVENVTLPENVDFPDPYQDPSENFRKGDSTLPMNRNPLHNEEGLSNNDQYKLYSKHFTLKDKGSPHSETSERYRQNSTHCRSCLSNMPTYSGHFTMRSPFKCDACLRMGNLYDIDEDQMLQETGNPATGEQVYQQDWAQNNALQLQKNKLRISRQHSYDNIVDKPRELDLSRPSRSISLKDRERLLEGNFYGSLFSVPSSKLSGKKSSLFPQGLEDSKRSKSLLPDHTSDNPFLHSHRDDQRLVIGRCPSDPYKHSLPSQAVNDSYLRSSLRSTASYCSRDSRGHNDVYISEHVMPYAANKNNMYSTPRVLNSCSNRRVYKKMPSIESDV

The EC50 is the concentration giving half of the maximal effect. Take `Cc1sc2nc(Cn3nc(C(F)(F)F)cc3Cl)cc(=O)n2c1C1CC1C` (single isomer, unassigned) [compound 155]: the EC50 (Table 3) is 0.0616 µM. As for `N#CC1CC1c1c(C(F)(F)F)sc2nc(Cn3nc(C(F)(F)F)cc3Cl)cc(=O)n12` (single isomer, unassigned) [compound 207], the EC50 (Table 3) was 0.0074 µM. On the same count and under the same terms, then `N#CC1CC1c1c(C(F)(F)F)sc2nc(Cn3nc(C(F)(F)F)cc3Cl)cc(=O)n12` (single isomer, unassigned) [compound 208], with 0.37 µM. The same measure, in the same setting: then `N#CC1CC1c1c(Cl)sc2nc(Cn3nc(C(F)(F)F)cc3Cl)cc(=O)n12` (single isomer, unassigned) [compound 266], with 0.0249 µM; and `O=c1cc(Cn2nc(C(F)(F)F)cc2Cl)nc2sc(C(F)(F)F)c([C@@H]3C[C@H]3CO)n12` (single isomer, unassigned) [compound 269], with 0.0831 µM; and `O=c1cc(Cn2nc(C(F)(F)F)cc2Cl)nc2sc(C(F)(F)F)c(C3CC3CO)n12` (single isomer, unassigned) [compound 270], with 0.518 µM. As to `Cc1sc2nc(Cn3ccc(C(F)(F)F)n3)cc(=O)n2c1C1CC1C#N` (single isomer, unassigned) [compound 272], the concentration giving a half-maximal response (EC50) (Table 3) turned out to be 0.252 µM. `Cc1sc2nc(Cn3ccc(C(F)(F)F)n3)cc(=O)n2c1C1CC1C#N` (single isomer, unassigned) [compound 273]: for the setting “Table 3”, the EC50 is 2.08 µM. On to `Cc1sc2nc(Cn3nc(C(F)(F)F)cc3Br)cc(=O)n2c1[C@@H]1C[C@@H]1C#N` (single isomer, unassigned) [compound 274], for which the EC50 (Table 3) was 0.012 µM.

`Cc1sc2nc(Cn3nc(C(F)(F)F)cc3Br)cc(=O)n2c1C1CC1C#N` (single isomer, unassigned) [compound 275]: the EC50 (Table 3) worked out at 0.0737 µM.

On to `N#CC1CC1c1c(C(F)(F)F)sc2nc(Cn3nc(C(F)(F)F)cc3Cl)c(F)c(=O)n12` (single isomer, unassigned) [compound 276], for which the EC50 (Table 3) came to 0.0364 µM. In the case of `N#CC1CC1c1c(C(F)(F)F)sc2nc(Cn3nc(C(F)(F)F)cc3Cl)c(F)c(=O)n12` (single isomer, unassigned) [compound 277], for the setting “Table 3”, the half-maximal effective concentration (EC50) was 0.155 µM. Consider `Cc1sc2nc(Cc3cccc(C(F)(F)F)c3F)cc(=O)n2c1C(C)O` (single isomer, unassigned; enantiomer 1) [Example 27.11, 7-(2-fluoro-3-(trifluoromethyl)benzyl)-3-(1-hydroxyethyl)-2-methyl-5H-thiazolo[3,2-a]pyrimidin-5-one (enantiomer 1)], for which, for the setting “Table 2”, the EC50 was 25.3 µM. On to `Cc1sc2nc(Cc3cccc(C(F)(F)F)c3F)cc(=O)n2c1C(C)O` (single isomer, unassigned; enantiomer 2) [Example 27.12, 7-(2-fluoro-3-(trifluoromethyl)benzyl)-3-(1-hydroxyethyl)-2-methyl-5H-thiazolo[3,2-a]pyrimidin-5-one (enantiomer 2)], for which the EC50 (Table 2) came out at 40.8 µM. As to `Cc1sc2nc(COc3ccc(F)cc3)cc(=O)n2c1C(=O)NCC#N` [Example 1.1, N-(cyanomethyl)-7-((4-fluorophenoxy)methyl)-2-methyl-5-oxo-5H-thiazolo[3,2-a]pyrimidine-3-carboxamide], where the note is “Table 2”, the EC50 is 9.6 µM and the Max % amounted to 63%. On to `CNC(=O)c1c(C)sc2nc(COc3ccc(F)cc3)cc(=O)n12` [Example 1.2, 7-(4-Fluorophenoxymethyl)-N,2-dimethyl-5-oxo-5H-[1,3]thiazolo[3,2-a]pyrimidine-3-carboxamide], for which the Max % (Table 2) is reported as 92%. With `Cc1sc2nc(COc3ccc(F)cc3)cc(=O)n2c1C(=O)N1CCC1` [Example 1.3, 3-[(Azetidin-1-yl)carbonyl]-7-(4-fluorophenoxymethyl)-2-methyl-5H-[1,3]thiazolo[3,2-a]pyrimidin-5-one], the Max % (Table 2) was 45%.

On to `CCNC(=O)c1c(C)sc2nc(COc3ccc(F)cc3)cc(=O)n12` [Example 1.4, N-ethyl-7-(4-fluorophenoxymethyl)-2-methyl-5-oxo-5H-[1,3]thiazolo[3,2-a] pyrimidine-3-carboxamide], for which, under “Table 2”, the EC50 is 11.2 µM and the Max % stood at 59.5%. For `Cc1sc2nc(COc3ccc(F)cc3)cc(=O)n2c1C(=O)NCC(F)(F)F` [Example 1.5, 7-(4-Fluorophenoxymethyl)-2-methyl-5-oxo-N-(2,2,2-trifluoroethyl)-5H-[1,3]thiazolo[3,2-a]pyrimidine-3-carboxamide], in that order: 23 µM and 51.4%. As for `CNC(=O)c1c(C)sc2nc(COc3ccc(F)c(F)c3)cc(=O)n12` [Example 1.6, 7-(3,4-Difluorophenoxymethyl)-N,2-dimethyl-5-oxo-5H-[1,3]thiazolo[3,2-a] pyrimidine-3-carboxamide], where the note is “Table 2”, the EC50 was 31.6 µM and the Max % turned out to be 64%.

`CCNC(=O)c1csc2nc(COc3ccc(F)cc3)cc(=O)n12` [Example 1.7, N-ethyl-7-(4-fluorophenoxymethyl)-5-oxo-5H-[1,3]thiazolo[3,2-a]pyrimidine-3-carboxamide]: for the setting “Table 2”, the EC50 came out at 27 µM and the Max % turned out to be 44.8%.

Consider `Cc1sc2nc(COc3ccc(F)cc3)cc(=O)n2c1C(N)=O` [Example 1.8, 7-((4-fluorophenoxy)methyl)-2-methyl-5-oxo-5H-thiazolo[3,2-a]pyrimidine-3-carboxamide], for which, where the note is “Table 2”, the EC50 came out at 26.3 µM and the Max % came to 47.4%. Consider `Cc1sc2nc(COc3ccc(F)cc3)cc(=O)n2c1C(=O)NO` [Example 1.9, 7-((4-fluorophenoxy)methyl)-N-hydroxy-2-methyl-5-oxo-5H-thiazolo[3,2-a] pyrimidine-3-carboxamide], for which, where the note is “Table 2”, the Max % is 99.5%. As to `Cc1sc2nc(COc3ccc(F)cc3)cc(=O)n2c1C(=O)NC(C)C` [Example 1.10, 7-(4-Fluorophenoxymethyl)-2-methyl-5-oxo-N-(propan-2-yl)-5H-[1,3]thiazolo[3,2-a] pyrimidine-3-carboxamide], where the note is “Table 2”, the Max % came out at 44%. For the compound `Cc1sc2nc(COc3ccc(F)cc3)cc(=O)n2c1C(=O)NCCO` [Example 1.11, 7-(4-Fluorophenoxymethyl)-N-(2-hydroxyethyl)-2-methyl-5-oxo-5H-[1,3]thiazolo[3,2-a]pyrimidine-3-carboxamide], under “Table 2”, the Max % is recorded as 73%. Same read-out and setting: then `Cc1sc2nc(COc3ccc(F)cc3)cc(=O)n2c1C(=O)NC(C)CO` (centres unmarked) [Example 1.12, 7-(4-Fluorophenoxymethyl)-N-(1-hydroxypropan-2-yl)-2-methyl-5-oxo-5H-[1,3]thiazolo[3,2-a]pyrimidine-3-carboxamide], with 45.5%; and `Cc1sc2nc(COc3ccc(F)cc3)cc(=O)n2c1C(=O)NCC1COC1` [Example 1.13, 7-((4-fluorophenoxy)methyl)-2-methyl-N-(oxetan-3-ylmethyl)-5-oxo-5H-thiazolo[3,2-a]pyrimidine-3-carboxamide], with 41.6%; and `Cc1sc2nc(COc3ccc(F)cc3)cc(=O)n2c1C(=O)NCCCO` [Example 1.14, 7-((4-fluorophenoxy)methyl)-N-(3-hydroxypropyl)-2-methyl-5-oxo-5H-thiazolo[3,2-a]pyrimidine-3-carboxamide], with 42.7%. As to `Cc1sc2nc(COc3ccc(F)cc3)cc(=O)n2c1C(=O)NC1CC1` [Example 1.15, N-cyclopropyl-7-((4-fluorophenoxy)methyl)-2-methyl-5-oxo-5H-thiazolo[3,2-a]pyrimidine-3-carboxamide], the Max % (Table 2) came to 55.1%. Same read-out and setting: then `CONC(=O)c1c(C)sc2nc(COc3ccc(F)cc3)cc(=O)n12` [Example 1.16, 7-((4-fluorophenoxy)methyl)-N-methoxy-2-methyl-5-oxo-5H-thiazolo[3,2-a] pyrimidine-3-carboxamide], with 56.5%.

Take `CNC(=S)c1c(C)sc2nc(COc3ccc(F)cc3)cc(=O)n12` [Example 1.17, 7-(4-Fluorophenoxymethyl)-N,2-dimethyl-5-oxo-5H-[1,3]thiazolo[3,2-a]pyrimidine-3-carbothioamide]: under “Table 2”, the concentration giving a half-maximal response (EC50) came out at 4 µM and the Max % was found to be 68.6%. Regarding `CCC(=O)c1c(C)sc2nc(COc3ccc(F)cc3)cc(=O)n12` [Example 2.1, 7-((4-fluorophenoxy)methyl)-2-methyl-3-propionyl-5H-thiazolo[3,2-a]pyrimidin-5-one], under “Table 2”, the EC50 came to 5.2 µM and the Max % was 51.3%.

Turning to `CCC(O)c1c(C)sc2nc(COc3ccc(F)cc3)cc(=O)n12` (centres unmarked) [Example 2.2, 7-((4-fluorophenoxy)methyl)-3-(1-hydroxypropyl)-2-methyl-5H-thiazolo[3,2-a]pyrimidin-5-one], under “Table 2”, the Max % was determined as 96.5%. Take `Cc1sc2nc(COc3ccc(F)cc3)cc(=O)n2c1C(C)O` (centres unmarked) [Example 2.3, 7-(4-Fluorophenoxymethyl)-3-(1-hydroxyethyl)-2-methyl-5H-[1,3]thiazolo[3,2-a]pyrimidin-5-one]: where the note is “Table 2”, the EC50 was 12.6 µM and the Max % was determined as 49.8%.

For `Cc1sc2nc(COc3ccc(F)cc3)cc(=O)n2c1C(C)(C)O` [Example 2.4, 7-(4-Fluorophenoxymethyl)-3-(2-hydroxypropan-2-yl)-2-methyl-5H-[1,3]thiazolo[3,2-a]pyrimidin-5-one], where the note is “Table 2”, the EC50 worked out at 3 µM and the Max % is 44.6%. Take `CC(=O)c1c(C)sc2nc(COc3ccc(F)cc3)cc(=O)n12` [Example 2.5, 3-acetyl-7-((4-fluorophenoxy)methyl)-2-methyl-5H-thiazolo[3,2-a]pyrimidin-5-one]: where the note is “Table 2”, the EC50 amounted to 32.9 µM and the Max % turned out to be 115%.
